Data: patent US11484539B2, “Compounds and their uses for alleviating menopause-associated symptoms” (Estetra SPRL, priority 2018, dated 2022)

Test system: post-menopausal women
Assay: Weekly frequency of moderate to severe VMS, dose-finding study
Assay type: in vivo
Conditions: for Difference with placebo, LS adjusted mean, absolute change in weekly frequency of moderate to severe VMS / Difference with placebo, LS adjusted mean, relative change in weekly frequency of moderate to severe VMS: 5 mg E4 vs placebo; for LS adjusted mean change from baseline in weekly frequency of moderate to severe VMS / LS adjusted mean relative change (%) from baseline in weekly frequency of moderate to severe VMS: 10 mg E4
Excerpt: To determine the Minimum Effective Dose (MED), firstly the selection criteria required that patients presented at least 7 moderate to severe VMS/day or at least 50 moderate to severe VMS/week in the week preceding randomization. Secondly, a placebo group was included in a double-blind fashion. Thirdly, the total patient number was such that statistical significance could be obtained between separate arms of the study. Fourthly, the absolute change from baseline in weekly frequency of moderate to severe VMS was taken into account. An analysis of covariance (ANCOVA) was performed based on the untransformed change in weekly frequency of moderate to severe VMS from baseline. Finally, the change in severity from baseline was evaluated. For this, the Severity Scoring System of VMS was documented by the subjects as follows: • a score of Mild (1) for a sensation of heat without sweating; • a score of Moderate (2) for a sensation of heat with sweating/the subject is able to continue activity; and • a score of Severe (3) for a sensation of heat with sweating/which causes cessation of activity.
Enrolment was approximately 18 months. Individual subject participation was up to 27 weeks: up to 6 weeks pre-screening and washout, up to 4 weeks screening and run-in period, up to 91 days (13 weeks) of E4/placebo treatment followed by 2 weeks (14 days) of progestin therapy and a Follow up visit 1 week after completion of progestin therapy in non-hysterectomised subjects only.
To define the minimum effective dose (MED) of the oral dose of E4 by evaluating changes in frequency and in severity of moderate to severe vasomotor symptoms (VMS).
This was a prospective, multicentre, randomised, placebo-controlled, double-blinded, dose-finding study.
Eligible subjects were hysterectomised and non-hysterectomised post-menopausal women aged 40 to 65 years, inclusive, presenting at least 7 moderate to severe hot flushes/day or at least 50 moderate to severe hot flushes/week.
The subjects have met all of the following inclusion criteria at the randomization visit. These criteria were assessed during the screening period: • 1. Women aged 40 to 65 years, inclusive, presenting at least 7 moderate to severe hot flushes/day or at least 50 moderate to severe hot flushes/week in the week preceding randomization. • 2. Body Mass Index (BMI) between 18.0 and 35.0 kg/m^2, inclusive. • 3. Post-menopausal status defined as levels of follicle stimulating hormone (FSH) >40 IU/L and: • amenorrhoea for at least 12 consecutive months or, • amenorrhoea for at least 6 months with estradiol (E2)<20 pg/mL or, • at least 6 weeks post-surgical bilateral oophorectomy with or without hysterectomy with a copy of the pathology report or a statement on letterhead from the subject's physician documenting both ovaries were removed is required. • 4. For non-hysterectomised women: intact uterus with bi-layer endometrial thickness […] on TVUS. • 5. Negative pregnancy test. • 6. Good physical and mental health, in the judgement of the Principal Investigator (PI), on the basis of medical, surgical and gynaecological history, physical examination, gynaecological examination, clinical laboratory, and vital signs. • 7. Subject has provided signed and dated written informed consent before admission to the study. • 8. Subject is able to understand and comply with the protocol requirements, instructions, and protocol-stated restrictions. Exclusion Criteria:
All treatments (Estetrol, hereinafter, E4, [2.5 mg, 5 mg, 10 mg, 15 mg] capsule) were administered once daily (QD) per os for at least 12 consecutive weeks until the last biological assessments (Day 91 maximum) had been performed.
In order to analyse the data recorded in this study, treatment groups have been compared using an ANCOVA (analysis of covariance) with respect to the change in weekly frequency of moderate to severe VMS from baseline to weeks 4 and 12. […]

[1] = week 4, ANCOVA with study centre
[2] = week 12, ANCOVA with study centre

Question: What does the source list for C[C@]12CC[C@@H]3c4ccc(O)cc4CC[C@H]3[C@@H]1[C@@H](O)[C@@H](O)[C@@H]2O [E4, 1,3,5 (10)-estratrien-3,15alpha,16alpha,17beta-tetrol]?
Answer: Relative change (% from baseline) in weekly frequency of moderate to severe VMS, mean (5 mg E4 QD per os, week 2): −33%; Mean change from baseline in weekly frequency of moderate to severe VMS (5 mg E4 QD per os, week 3): −24.38; Relative change (% from baseline) in weekly frequency of moderate to severe VMS, mean (5 mg E4 QD per os, week 3): −38%; Mean change from baseline in weekly frequency of moderate to severe VMS (5 mg E4 QD per os, week 4): −27.57; Relative change (% from baseline) in weekly frequency of moderate to severe VMS, mean (5 mg E4 QD per os, week 4): −43%; Mean change from baseline in weekly frequency of moderate to severe VMS (5 mg E4 QD per os, week 5): −30.70; Relative change (% from baseline) in weekly frequency of moderate to severe VMS, mean (5 mg E4 QD per os, week 5): −47%; Mean change from baseline in weekly frequency of moderate to severe VMS (5 mg E4 QD per os, week 6): −38.02; Relative change (% from baseline) in weekly frequency of moderate to severe VMS, mean (5 mg E4 QD per os, week 6): −57%; Mean change from baseline in weekly frequency of moderate to severe VMS (5 mg E4 QD per os, week 7): −38.23; Relative change (% from baseline) in weekly frequency of moderate to severe VMS, mean (5 mg E4 QD per os, week 7): −57%; Mean change from baseline in weekly frequency of moderate to severe VMS (5 mg E4 QD per os, week 8): −38.55; Relative change (% from baseline) in weekly frequency of moderate to severe VMS, mean (5 mg E4 QD per os, week 8): −57%; Mean change from baseline in weekly frequency of moderate to severe VMS (5 mg E4 QD per os, week 9): −39.34; Relative change (% from baseline) in weekly frequency of moderate to severe VMS, mean (5 mg E4 QD per os, week 9): −59%; Mean change from baseline in weekly frequency of moderate to severe VMS (5 mg E4 QD per os, week 10): −39.83; Relative change (% from baseline) in weekly frequency of moderate to severe VMS, mean (5 mg E4 QD per os, week 10): −60%; Mean change from baseline in weekly frequency of moderate to severe VMS (5 mg E4 QD per os, week 11): −41.46; Relative change (% from baseline) in weekly frequency of moderate to severe VMS, mean (5 mg E4 QD per os, week 11): −63%; Mean change from baseline in weekly frequency of moderate to severe VMS (5 mg E4 QD per os, week 12): −40.60; Relative change (% from baseline) in weekly frequency of moderate to severe VMS, mean (5 mg E4 QD per os, week 12): −62%; Difference with placebo, LS adjusted mean, absolute change in weekly frequency of moderate to severe VMS [1]: 6.359; Difference with placebo, LS adjusted mean, relative change in weekly frequency of moderate to severe VMS [1]: 0.06833; Difference with placebo, LS adjusted mean, absolute change in weekly frequency of moderate to severe VMS (week 4, without site effect): 5.781; Difference with placebo, LS adjusted mean, relative change in weekly frequency of moderate to severe VMS (week 4, without site effect): 0.05854; Difference with placebo, LS adjusted mean, absolute change in weekly frequency of moderate to severe VMS [2]: 3.054; Difference with placebo, LS adjusted mean, relative change in weekly frequency of moderate to severe VMS [2]: 0.03978; Difference with placebo, LS adjusted mean, absolute change in weekly frequency of moderate to severe VMS (week 12, without site effect): 2.918; Difference with placebo, LS adjusted mean, relative change in weekly frequency of moderate to severe VMS (week 12, without site effect): 0.03671; LS adjusted mean change from baseline in weekly frequency of moderate to severe VMS [1]: −35.37; LS adjusted mean relative change (%) from baseline in weekly frequency of moderate to severe VMS [1]: -54.5%; LS adjusted mean change from baseline in weekly frequency of moderate to severe VMS (week 4, without site effect): −35.87; LS adjusted mean relative change (%) from baseline in weekly frequency of moderate to severe VMS (week 4, without site effect): -55.5%; LS adjusted mean change from baseline in weekly frequency of moderate to severe VMS [2]: −45.84; LS adjusted mean relative change (%) from baseline in weekly frequency of moderate to severe VMS [2]: -70%; LS adjusted mean change from baseline in weekly frequency of moderate to severe VMS (week 12, without site effect): −46.53; LS adjusted mean relative change (%) from baseline in weekly frequency of moderate to severe VMS (week 12, without site effect): -71.7%; Mean change from baseline in weekly frequency of moderate to severe VMS (10 mg E4 QD per os, week 1): −13.37; Relative change (% from baseline) in weekly frequency of moderate to severe VMS, mean (10 mg E4 QD per os, week 1): −21%; Mean change from baseline in weekly frequency of moderate to severe VMS (10 mg E4 QD per os, week 2): −23.47; Relative change (% from baseline) in weekly frequency of moderate to severe VMS, mean (10 mg E4 QD per os, week 2): −37%; Mean change from baseline in weekly frequency of moderate to severe VMS (10 mg E4 QD per os, week 3): −31.34; Relative change (% from baseline) in weekly frequency of moderate to severe VMS, mean (10 mg E4 QD per os, week 3): −48%; Mean change from baseline in weekly frequency of moderate to severe VMS (10 mg E4 QD per os, week 4): −36.38; Relative change (% from baseline) in weekly frequency of moderate to severe VMS, mean (10 mg E4 QD per os, week 4): −55%; Mean change from baseline in weekly frequency of moderate to severe VMS (10 mg E4 QD per os, week 5): −39.07; Relative change (% from baseline) in weekly frequency of moderate to severe VMS, mean (10 mg E4 QD per os, week 5): −60%; Mean change from baseline in weekly frequency of moderate to severe VMS (10 mg E4 QD per os, week 6): −42.56; Relative change (% from baseline) in weekly frequency of moderate to severe VMS, mean (10 mg E4 QD per os, week 6): −65%; Mean change from baseline in weekly frequency of moderate to severe VMS (10 mg E4 QD per os, week 7): −43.30; Relative change (% from baseline) in weekly frequency of moderate to severe VMS, mean (10 mg E4 QD per os, week 7): −66%
